Measurements taken from patent US9403866B2, “Compositions and methods for increasing telomerase activity” (Telomerase Activation Sciences, Inc., priority 2009, dated 2016).
Read-outs that look alike come from different tables or passages of the source.

How the values were obtained:
[1] = Plasma levels and bioavailability in mice; format: in vivo, male C57BL/6 mice; settings: male, C57BL/6, mouse, read-out: Bioavailability % F
Procedure: The plasma levels of a compound following a single intravenous, oral, intra-peritoneal, or sub-cutaneous administration in male C57BL/6 mice was determined. Plasma samples were collected and used to determine the plasma concentration of the compound and metabolites. In addition tissue samples, including whisker samples, and peripheral blood mononuclear cells (PBMC) cells were collected for telomerase activity analysis.
(§1) C57BL16 mice were divided into treatment groups. The mice were provided ad libitum SLAC-MO1 #W080208 (Shanghai Laboratories Animal Center, Shanghai, China) throughout the in-life portion of the study with the exception of the overnight fasting period prior to oral dosing. Water was available ad libitum.
(§2) Body weights were taken on the day of dose administration. Dose volume was determined based on individual body weight taken on day of dosing.
Blood samples (approximately 300 μL) were collected via cardiac puncture or via retro-orbital puncture after anesthesia into tubes containing K2-EDTA anticoagulant and 1 mg/ml NaF at the various time points after dosing. Blood was stored on ice and then plasma separated via centrifugation (8000 rpm×6 minutes). The plasma was stored at […] until LC-MS/MS analysis.

telomerase [2] = molecular target: T1, telomerase (Homo sapiens, UniProt O14746); test: Keratinocyte cell/TRAP assay (HEKneo-P cells); format: cell-based; parameters: host or cells: HEKneo-P (pooled neonatal human epidermal keratinocytes); settings: for EC50: telomerase activation; for Activity in in vitro HEK assay: 24 hr, 0.01 to 10 μM, vs vehicle control at peak of full dose curve
From the text: Harley et al., U.S. Pat. […] Harley et al., U.S. Pat. […] Non-treatment control (NT) was also included. […]

Human brain pericytes = test: Tube formation of human brain pericytes on Matrigel; format: cell-based; settings: 0.5 μM in water, 24 hr then 6 hr on Matrigel, p<0.15
Procedure: Human brain pericytes (donor) at PD 10 were cultured for a total of 30 hr in 0.5 μM compound 7 dissolved in water. Telomerase activity and tube formation were analyzed.
Brain pericytes were first cultured for 24 hr in a T-75 flask in 0.5 μM compound 7, and then split onto a 24 well plate coated with Matrigel in order to promote tube formation (done in triplicate). 0.5 μM compound 7 was again included in the medium. After 6 hr the samples were fixed and branch points were counted using a microscope, 5 fields/well, with 3 wells/condition. Compound 7 treated pericytes had 1.9 times more branch points than the control (p<0.15).

[3] = Plasma levels and bioavailability in rats; settings: male, Sprague Dawley, rat, in vivo, po, 10 mg/kg
Procedure: (§3) The plasma levels of a compound following a single intravenous and oral administration in carotid artery-cannulated male Sprague Dawley rats was determined. Plasma samples were collected and used to determine the plasma concentration of the compound and metabolites. In addition tissue samples, including whisker samples and PBMC cells were collected for telomerase activity analysis.
as §1, with “Carotid artery-cannulated male Sprague Dawley rats” for “C57BL16 mice”, “groups according to Table 6.” for “groups.”, “rats” for “mice”, “# YY080208” for “#W080208”
The compounds were dissolved in 2% EtOH/98% water to yield a final concentration of 2.5 mg/ml and 1 mg/ml for both intravenous and oral administration, respectively. The concentration of each compound was confirmed by HPLC analysis.
as §2
(§4) Blood samples (approximately 250 μL) were collected via cannulae into tubes containing K2-EDTA anticoagulant and 1 mg/ml NaF at the various time points. Blood was stored on ice and then plasma separated via centrifugation (8000 rpm×6 minutes). The plasma was stored at […] until LC-MS/MS analysis.
Percentage of bioavailability was calculated.

[4] = parameters: species or system male Beagle dogs; settings: male, Beagle, dog, in vivo, po, 10 mg/kg
Procedure: as §3, with “level” for “levels”, “in” for “in carotid artery-cannulated”, “Beagle dogs” for “Sprague Dawley rats”
as §1, with “Male Beagle dogs” for “C57BL16 mice”, “groups according to Table 5.” for “groups.”, “dogs” for “mice”, “#W080701” for “#W080208”
The compounds were dissolved in 2% EtOH/98% water […] to yield a final concentration of 2.5 mg/ml and 1 mg/ml for both intravenous and oral administration, respectively. The concentration of each compound was confirmed by HPLC analysis.
Doses were administered intravenously via the left femoral vein and then by oral dosing one week later. Body weights were taken on the day of dose administration. Dose volume was determined based on individual body weight taken on day of dosing.
as §4, with “right femoral vein” for “cannulae”, “appropriate” for “the various”

telomerase [5] = molecular target: T1, telomerase; parameters: host or cells: peripheral blood mononuclear cells; settings: reported by Franzese et al.; cited from earlier work
telomerase [6] = molecular target: T1, telomerase; test: In vitro model of fibrosis: TGFβ and bleomycin treated SAECs, gel TRAP assay; format: cell-based; settings: bleomycin 10 ug/ml, TGFβ 10 ng/ml
Procedure: In addition a portion of the cells were treated with bleomycin (10 ug/ml) and TGFβ (10 ng/ml). Forty-eight hours after the second treatment, cells were washed and lysed with M-Per lysis buffer. A gel TRAP assay was run to evaluate the telomerase activity in the cells.

T1 sequence (O14746 whole entry): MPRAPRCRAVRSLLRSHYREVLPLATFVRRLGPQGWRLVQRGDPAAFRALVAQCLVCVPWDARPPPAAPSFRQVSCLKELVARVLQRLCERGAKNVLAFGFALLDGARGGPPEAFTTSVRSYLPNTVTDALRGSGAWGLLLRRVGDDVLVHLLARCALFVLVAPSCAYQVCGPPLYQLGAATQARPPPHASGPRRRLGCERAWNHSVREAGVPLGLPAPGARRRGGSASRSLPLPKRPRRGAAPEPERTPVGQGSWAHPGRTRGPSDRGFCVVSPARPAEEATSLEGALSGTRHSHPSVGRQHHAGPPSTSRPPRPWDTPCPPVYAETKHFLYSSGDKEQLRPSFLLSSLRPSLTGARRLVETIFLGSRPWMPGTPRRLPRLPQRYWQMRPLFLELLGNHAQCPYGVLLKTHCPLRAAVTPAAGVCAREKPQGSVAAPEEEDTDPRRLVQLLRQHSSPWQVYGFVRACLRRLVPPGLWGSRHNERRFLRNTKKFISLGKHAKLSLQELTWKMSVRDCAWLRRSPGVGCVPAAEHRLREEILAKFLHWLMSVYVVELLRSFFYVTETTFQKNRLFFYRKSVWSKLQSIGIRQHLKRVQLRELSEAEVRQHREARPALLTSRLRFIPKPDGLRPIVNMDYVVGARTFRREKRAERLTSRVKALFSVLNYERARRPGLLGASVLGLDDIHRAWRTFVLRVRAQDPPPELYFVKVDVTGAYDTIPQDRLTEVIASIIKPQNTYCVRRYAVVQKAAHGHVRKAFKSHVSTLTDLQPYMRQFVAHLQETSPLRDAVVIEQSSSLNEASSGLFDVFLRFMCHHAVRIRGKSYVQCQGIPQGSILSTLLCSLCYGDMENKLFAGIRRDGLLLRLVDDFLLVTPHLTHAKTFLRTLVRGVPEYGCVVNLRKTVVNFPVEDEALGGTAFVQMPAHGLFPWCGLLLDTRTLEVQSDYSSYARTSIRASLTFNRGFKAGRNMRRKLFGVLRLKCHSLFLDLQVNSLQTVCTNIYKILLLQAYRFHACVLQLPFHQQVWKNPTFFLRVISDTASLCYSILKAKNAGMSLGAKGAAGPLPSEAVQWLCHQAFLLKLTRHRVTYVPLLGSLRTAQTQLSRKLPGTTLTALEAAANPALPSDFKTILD

Compound	EC50 (telomerase [2]) [nM]	Bioavailability % F [3] [%]	Max fold increase of activity (telomerase [2]) [fold]	Activity in in vitro HEK assay (telomerase [2])	further results
CC(C)C(N)C(=O)OC1CC2C3(C)CC(O)C(C4(C)CCC(C(C)(C)O)O4)C3(C)CCC23CC32CCC(OC(=O)C(N)C(C)C)C(C)(C)C12 (stereo not drawn) [Compound 7, 2-(L)-Amino-3-methyl-butyric acid 6α-(2-amino-3-methyl-butyryloxy)-16β-dihydroxy-17-[5-(1-hydroxy-1-methyl-ethyl)-2-methyl-tetrahydro-furan-2-yl]-4,4,13,14-tetramethyl-tetradecahydro-cyclopropa[9,10]cyclopenta[a]phenanthren-3β-yl ester]	41 to 50	44			bioavailability ([1]; PO, 10 mg/kg, 2% EtOH/98% water): 25%; bioavailability ([1]; SC, 10 mg/kg, 2% EtOH/98% water): 61%; branch points relative to the control (Human brain pericytes): 1.9 times
CC(C)C(N)C(=O)OC1CC2C3(C)CC(O)C(C4(C)CCC(C(C)(C)O)O4)C3(C)CCC23CC32CCC(O)C(C)(C)C12 (centres unmarked) [Compound 12]	28 to 32	27			bioavailability ([1]; IP, 5 mg/kg, 2% EtOH/98% water): 42%; bioavailability ([1]; PO, 5 mg/kg, 2% EtOH/98% water): 8%
CCC(C)C(N)C(=O)OC1CCC23CC24CCC2(C)C(C5(C)CCC(C(C)(C)O)O5)C(O)CC2(C)C4CC(O)C3C1(C)C (centres unmarked) [Compound 14]	9 to 21	93			bioavailability ([1]; PO, 10 mg/kg, 5% PEG400/5% solutol HS-15/90% water): 42%; Bioavailability % F [4]: 55%
CC(C)[C@H](N)C(=O)O[C@H]1CC2C3(CC[C@]4(C)[C@@H]([C@@]5(C)CC[C@@H](C(C)(C)O)O5)[C@@H](O)C[C@@]24C)C[C@@]32CCC(=O)C(C)(C)[C@H]12.Cl (stereo partly drawn) [Compound 30, 2-(L)-Amino-3-methyl butyric acid 16β-hydroxy-17-[5-(1-hydroxy-1-methyl-ethyl)-2-methyl-tetrahydro-furan-2-yl]-4,4,13,14-tetramethyl-3-oxo-tetradecahydro-cyclopropa[9,10]cyclopenta[a]phenanthren-6α-yl ester]			3.5	+ (telomerase activation is 2 fold or more in comparison with vehicle control at the peak of the full dose curve.)	
CCC(C)[C@H](N)C(=O)OC1CC2C3(C)CC(O)C(C4(C)CCC(C(C)(C)O)O4)C3(C)CCC23CC32CCC(OC(=O)[C@@H](N)C(C)CC)C(C)(C)C12 (some centres unmarked) [Compound 32]			3	+ (telomerase activation is 2 fold or more in comparison with vehicle control at the peak of the full dose curve.)	concentration at Max fold increase of activity (telomerase [2]): 0.37 to 1.1 µM
CC(C)[C@H](N)C(=O)OC1CC2(C)C3CC(O)C4C(C)(C)C(O)CCC45CC35CCC2(C)C1C1(C)CCC(C(C)(C)O)O1 (stereo partly drawn) [Compound 36, 2-(L)-Amino-3-methyl-butyric acid 3β,6α-dihydroxy-16β-hydroxy-17-[5-(1-hydroxy-1-methyl-ethyl)-2-methyl-tetrahydro-furan-2-yl]-4,4,13,14-tetramethyl-tetradecahydro-cyclopropa[9,10]cyclopenta[a]phenanthren-16β-yl ester]			3.0	+ (telomerase activation is 2 fold or more in comparison with vehicle control at the peak of the full dose curve.)	concentration at Max fold increase of activity (telomerase [2]): 0.01 to 0.12 µM
CC(C)(C)NC(=O)[C@@H]1C[C@@H]2CCCC[C@@H]2CN1C[C@@H](O)[C@H](Cc1ccccc1)NC(=O)[C@H](CC(N)=O)NC(=O)c1ccc2ccccc2n1 [Saquinavir]					telomerase activity in peripheral blood mononuclear cells (telomerase [5]): increased telomerase activity
bleomycin					effect on SAEC telomerase activity (telomerase [6]): suppressed SAEC telomerase activity
